Measured values taken from patent publication US12428415B2, “Matriptase 2 inhibitors and uses thereof” (Disc Medicine, Inc., priority 2018, dated 2025).
Read-outs that look alike come from different tables or passages of the source.

Molecular target: T1, Human Recombinant Matriptase 2 (Homo sapiens, UniProt Q8IU80)
T1 construct: purchased Enzo Life Sciences (an in-house preparation was also used) ALX-201-752-1
T1 sequence (Q8IU80 1-811): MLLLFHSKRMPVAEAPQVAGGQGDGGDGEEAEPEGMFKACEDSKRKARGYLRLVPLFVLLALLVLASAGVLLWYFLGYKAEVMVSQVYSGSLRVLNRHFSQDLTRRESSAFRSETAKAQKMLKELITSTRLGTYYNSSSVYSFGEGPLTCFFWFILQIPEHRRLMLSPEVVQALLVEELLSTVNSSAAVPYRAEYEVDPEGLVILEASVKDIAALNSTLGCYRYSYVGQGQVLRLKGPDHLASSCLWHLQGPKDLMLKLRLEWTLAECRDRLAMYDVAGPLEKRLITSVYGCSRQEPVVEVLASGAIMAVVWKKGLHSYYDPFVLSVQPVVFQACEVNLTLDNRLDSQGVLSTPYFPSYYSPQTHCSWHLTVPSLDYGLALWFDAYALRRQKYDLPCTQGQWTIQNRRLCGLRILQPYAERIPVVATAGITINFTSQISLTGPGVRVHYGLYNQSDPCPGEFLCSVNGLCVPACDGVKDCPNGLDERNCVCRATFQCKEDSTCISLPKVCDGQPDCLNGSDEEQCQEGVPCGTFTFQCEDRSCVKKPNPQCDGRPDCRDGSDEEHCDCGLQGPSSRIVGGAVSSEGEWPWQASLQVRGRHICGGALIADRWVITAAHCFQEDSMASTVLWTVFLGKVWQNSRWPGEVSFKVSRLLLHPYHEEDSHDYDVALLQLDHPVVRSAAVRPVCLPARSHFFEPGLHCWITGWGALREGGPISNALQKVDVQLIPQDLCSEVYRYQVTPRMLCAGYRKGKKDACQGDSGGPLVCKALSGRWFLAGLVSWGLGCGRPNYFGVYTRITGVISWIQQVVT
Test: Matriptase 2 fluorescence based inhibition assay, Method B (50 mM TRIS pH 7.5, 150 mM NaCl, 0.01% gelatin)
Format: biochemical
Settings: for inhibition at 1 µM: read-out: Mar-2 % inhibition at 1 uM
Protocol: Test compounds were evaluated for their potential to inhibit Human Recombinant Matriptase 2 (in-house and commercial protein from Enzo Life Sciences—cat log -ALX-201-752-1) using fluorescence based assay. The concentration of Recombinant Matriptase 2 and the substrate used in the assay was: 7 nM (commercial) and 15 nM (Inhouse Matriptase 2) and 100 μM (Boc-Gln-Ala-Arg-7-amido-4-methyl coumarin hydrobromide—Cat log: B4153-Sigma and I-1550 from Bachem) respectively. The assay buffer used was 50 mM TRIS pH 7.5, 150 mM NaCl, 0.01% gelatin (G1393 Sigma). The assay was performed using 384 well black flat bottom plate from grenier (Cat log: 781076) at 25° C. The enzyme and compound preincubated for 30 mins, plate was read 60 mins after substrate addition at wavelength Ex: 360/Em:480 nm. The final assay volume of was 20 μl. Stock solution of compounds were initially prepared in DMSO and appropriate dilutions were made for screening and IC50 determination (final DMSO conc in the assay was 1%). All the measurements were carried out using the Spectramax M5, Molecular devices. The compounds were screened at 1 and 10 μM concentration and IC50 was determined for the interested compounds.
To determine IC50 values, dose response curves were generated by plotting percentage inhibition as a function of inhibitor concentration and the data was fitted to sigmoidal non-linear regression equation (variable slope) using Graph Pad prism software V7.

[1] = 1 uM compound, Assay Used = B (Method B)

Structure (SMILES)	inhibition at 1 µM [1] [%]	inhibition at 1 µM (1 uM compound, Assay Used = B) [%]	also measured
COC(=O)NCCOC(=O)c1cc2ccc(C(=N)N)cc2n1Cc1cccc2ccccc12 [Compound I-602]	50 to 75	–	–
N=C(N)c1ccc2cc(C(=O)N[C@H]3CC[C@H](N)CC3)n(CCS(=O)(=O)c3cccc4ccccc34)c2c1 [Compound I-501]	–	0 to 25	–
Cn1nc(C(F)(F)F)c(C=O)c1Oc1cc(Cn2c(C(=O)O)cc3ccc(C(=N)N)cc32)c2ccccc2c1 [Compound I-584]	–	0 to 25	–
N=C(N)c1ccc2cc(C(=O)N[C@H]3CC[C@H](N)CC3)n(Cc3cc(C(N)=O)cc4ccccc34)c2c1 [Compound I-796, N-((1r, 4r)-4-aminocyclohexyl)-6-carbamimidoyl-1-((3-carbamoylnaphthalen-1-yl)methyl)-1H-indole-2-carboxamide]	50 to 75	–	–
COc1ccccc1Oc1cc(Cn2c(C(=O)O)cc3ccc(C(=N)N)cc32)c2ccccc2c1 [Compound I-709]	25 to 50	–	–
COc1cccc(Oc2cc(Cn3c(C(=O)O)cc4ccc(C(=N)N)cc43)c3ccccc3c2)c1 [Compound I-686]	50 to 75	–	–
CCOC(=O)c1cc2ccc(C(=N)NC(=O)OCC(C)C)cc2n1Cc1cc(Oc2ccsc2)cc2ccccc12 [Compound I-586]	–	25 to 50	–
N=C(N)c1ccc2cc(C(=O)O[C@H]3CC[C@H](N)CC3)n(Cc3cccc4ccccc34)c2c1 [Compound I-485, (1r,4r)-4-aminocyclohexyl 6-carbamimidoyl-1-(naphthalen-1-ylmethyl)-1H-indole-2-carboxylate]	–	75 to 100	–
N=C(N)c1ccc2cc(C(=O)N[C@H]3CC[C@H](N)CC3)n(CCc3ccc4ccccc4c3)c2c1 [Compound I-410]	–	25 to 50	–
N=C(N)c1ccc2cc(C(=O)N[C@H]3CC[C@H](N)CC3)n(Cc3cc(Oc4ccccc4)cc4ccccc34)c2c1 [Compound I-777]	75 to 100	–	–
N=C(N)c1ccc2cc(C(=O)O)n(Cc3cccc4c(COCc5ccccc5)cccc34)c2c1 [Compound I-672]	75 to 100	–	–
N=C(N)c1ccc2cc(C(=O)N[C@H]3CC[C@H](N)CC3)n(Cc3cccc4c(Oc5ccccc5)cccc34)c2c1 [Compound I-731]	75 to 100	–	–
CCNC(=N)c1ccc2cc(C(=O)N[C@H]3CC[C@H](N)CC3)n(Cc3ccc4ccccc4c3)c2c1 [Compound I-413, N-((1r,4r)-4-aminocyclohexyl)-6-(N-ethylcarbamimidoyl)-1-(naphthalen-2-ylmethyl)-1H-indole-2-carboxamide]	–	25 to 50	–
N=C(N)c1ccc2cc(C(=O)N[C@H]3CC[C@H](N)CC3)n(Cc3cccc4cc(OCCCc5ccccc5)ccc34)c2c1 [Compound I-770]	50 to 75	–	–
CN1CCC(COC(=O)c2cc3ccc(C(=N)N)cc3n2Cc2cc(Oc3ncccn3)cc3ccccc23)CC1 [Compound I-562]	–	50 to 75	–
N=C(N)c1ccc2cc(C(=O)OCCO)n(Cc3cccc4ccccc34)c2c1 [Compound I-611]	50 to 75	–	–
N=C(N)c1ccc2cc(NC(=O)[C@H]3CC[C@H](N)CC3)n(Cc3cccc4ccccc34)c2c1 [Compound I-529, (1r,4r)-4-amino-N-(6-carbamimidoyl-1-(naphthalen-1-ylmethyl)-1H-indol-2-yl) cyclohexane-1-carboxamide]	–	50 to 75	–
N=C(N)c1ccc2cc(C(=O)NCC3CCNCC3)n(-c3ccc4ccccc4c3)c2c1 [Compound I-490, 6-carbamimidoyl-1-(naphthalen-2-yl)-N-(piperidin-4-ylmethyl)-1H-indole-2-carboxamide]	–	50 to 75	–
Cn1c(C(=O)O)c(Cc2cc(Oc3ccccc3)cc3ccccc23)c2cc(C(=N)N)ccc21 [Compound I-606]	25 to 50	–	–
N=C(N)c1ccc2cc(C(=O)O)n(Cc3cc(Oc4ccncn4)cc4ccccc34)c2c1 [Compound I-618]	50 to 75	–	–
CN1CCC(NC(=O)c2cc3ccc(C(=N)N)cc3n2Cc2cc(Oc3ncccn3)cc3ccccc23)CC1 [Compound I-594]	–	75 to 100	–

Structure (SMILES)	inhibition at 1 µM [1] [%]	inhibition at 1 µM (1 uM compound, Assay Used = B) [%]	also measured
N=C(N)c1ccc2cc(C(=O)NC3CCNC(=O)C3)n(Cc3cccc4ccccc34)c2c1 (stereo not drawn) [Compound I-477]	–	50 to 75	–
N=C(N)c1ccc2cc(C(=O)O)n(Cc3cc(Oc4cccnn4)cc4ccccc34)c2c1 [Compound I-610]	25 to 50	–	–
COC(=O)c1ccc(Cn2c(C(=O)N[C@H]3CC[C@H](N)CC3)cc3ccc(C(=N)N)cc32)c2ccccc12 [Compound I-825]	–	–	inhibition at 1 µM (compound at 1 uM, Assay Used: B): 75 to 100%
N=C(N)c1ccc2cc(N3CCOC3=O)n(Cc3cccc4ccccc34)c2c1 [Compound I-726, 1-(naphthalen-1-ylmethyl)-2-(2-oxooxazolidin-3-yl)-1H-indole-6-carboximidamide]	25 to 50	–	–
N=C(N)c1ccc2cc(C(=O)O)n(Cc3cc(Oc4ccccc4Cl)cc4ccccc34)c2c1 [Compound I-661]	25 to 50	–	–
N=C(N)c1ccc2cc(C(=O)N[C@H]3CC[C@@H](N)CC3)n(Cc3cccc4ccccc34)c2c1 [Compound I-439]	–	75 to 100	–
Cn1c(C(=O)O)c(Cc2cccc3ccccc23)c2cc(C(=N)N)ccc21 [Compound I-689]	75 to 100	–	–
N=C(N)c1ccc2cc(C(=O)O)n(Cc3cc(Cc4ccccc4)cc4ccccc34)c2c1 [Compound I-649]	0 to 25	–	–
N=C(N)c1ccc2cc(C(=O)NCC3CCNCC3)n(Cc3cccc4ccccc34)c2c1 [Compound I-497, 6-carbamimidoyl-1-(naphthalen-1-ylmethyl)-N-(piperidin-4-ylmethyl)-1H-indole-2-carboxamide]	–	75 to 100	–
CS(=O)(=O)Oc1cc(Cn2c(C(=O)O)cc3ccc(C(=N)N)cc32)c2ccccc2c1 [Compound I-623]	50 to 75	–	–
N=C(N)c1ccc2cc(C(=O)N[C@H]3CC[C@H](N)CC3)n(Cc3cc(OS(=O)(=O)c4ccccc4)cc4ccccc34)c2c1 [Compound I-608]	75 to 100	–	–
N=C(N)c1ccc2cc(C(=O)N[C@H]3CC[C@H](N)CC3)n(Cc3cc(Oc4ccc(-c5ccccc5)cc4)cc4ccccc34)c2c1 [Compound I-715]	0 to 25	–	–
N=C(N)c1ccc2cc(C(=O)O)n(Cc3cccc4ccccc34)c2c1 [Compound I-458, 6-carbamimidoyl-1-(naphthalen-1-ylmethyl)-1H-indole-2-carboxylic Acid]	–	75 to 100	–
CC(C)(C)OC(=O)NC(=N)c1ccc2cc(C(=O)N[C@H]3CC[C@H](NC(=O)OC(C)(C)C)CC3)n(Cc3ccnc4ccccc34)c2c1 [Compound I-494]	–	0 to 25	–
CCOC(=O)c1cc2ccc(C(=N)NC(=O)OCC(C)C)cc2n1Cc1cc(Oc2ccccc2)cc2ccccc12 [Compound I-627]	0 to 25	–	–
N=C(N)c1ccc2cc(C(=O)N[C@H]3CC[C@H](N)CC3)n(Cc3cncc4ccccc34)c2c1 [Compound I-687]	–	–	Mar-2 % inhibition at 1 uM [1]: C (C represents 50%≤I≤75%)
CCOC(=O)c1cc2ccc(C(=N)NC(=O)OCC(C)C)nc2n1Cc1cccc2ccccc12 [Compound I-676]	0 to 25	–	–
N=C(N)c1ccc2cc(S(=O)(=O)N[C@H]3CC[C@H](N)CC3)n(Cc3cccc4ccccc34)c2c1 [Compound I-522, 2-(N-((1r,4r)-4-aminocyclohexyl)sulfamoyl)-1-(naphthalen-1-ylmethyl)-1H-indole-6-carboximidamide]	–	50 to 75	–
N=C(N)c1ccc2cc(C(=O)N[C@H]3CC[C@H](N)CC3)n(Cc3ccnc4ccccc34)c2c1 [Compound I-499]	–	50 to 75	–
N=C(N)c1ccc2cc(C(=O)N[C@H]3CC[C@H](N)CC3)n(Cc3cc(S(=O)(=O)c4ccccc4)cc4ccccc34)c2c1 [Compound I-727]	75 to 100	–	–
COC(=O)NCCNC(=O)c1cc2ccc(C(=N)N)cc2n1Cc1cccc2ccccc12 [Compound I-587]	–	75 to 100	–
